Test [1] has as its target Protease (Human immunodeficiency virus 1) (UniProt Q9YQ12). The experiment in a line: Inhibition of recombinant HIV1 protease at 2 uM using FRET substrate peptide by FRET assay.
Test [2] has the same target. The experiment in a line: Inhibition of recombinant HIV1 protease at 1 mM using FRET substrate peptide by FRET assay.
Another test concerns the target Protease (Human immunodeficiency virus 1, UniProt Q9YQ12). Kind of test: Inhibition of recombinant HIV1 protease using FRET substrate peptide by FRET assay.

pIC50: −log10 of the molar value. Activity calls are given as the source filed them. No cut-off for these calls is given here. Square brackets hold non-standard residues; d marks the D form. Peptide text beside a SMILES is read from it. * marks the point of attachment. Hyp = O=C(O)[C@@H]1C[C@@H](O)CN1; ONp = O=[N+]([O-])c1ccc(O*)cc1; Cbz = O=C(OCc1ccccc1)*; Boc = CC(C)(C)OC(=O)*; OBn = c1ccc(CO*)cc1

Sequence of Protease (Human immunodeficiency virus 1) (Q9YQ12 as listed by the source): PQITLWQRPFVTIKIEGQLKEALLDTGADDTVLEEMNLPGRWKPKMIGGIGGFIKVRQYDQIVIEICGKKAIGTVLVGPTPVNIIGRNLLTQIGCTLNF
Sequence of Protease (Q9YQ12 whole entry): as the sequence (Q9YQ12 as listed by the source) above

For the molecule `CC(C)CC(=O)N[C@H](C(=O)N[C@H](C(=O)N[C@@H](CC(C)C)[C@@H](O)CC(=O)N[C@@H](C)C(=O)N[C@@H](CC(C)C)[C@@H](O)CC(=O)O)C(C)C)C(C)C`, the inhibition result in test [1] is “Active”.
In the case of `C[C@@H](NC(=O)[C@H](Cc1ccccc1)NC(=O)[C@H](Cc1ccccc1)NC(=O)OC(C)(C)C)C(=O)OCc1ccccc1`, in test [2], the inhibition entry was “inactive”.
Same read-out and setting: in the case of `CC(C)C[C@@H](NC(=O)[C@H](CSCc1ccccc1)NC(=O)OCc1ccccc1)C(=O)OCc1ccccc1` it was “inactive”; in that of `CC(C)[C@H](NC(=O)[C@H](Cc1ccccc1)NC(=O)OC(C)(C)C)C(=O)NCC(=O)OCc1ccccc1` (Boc-Phe-Val-Gly-OBn), “inactive”.
In the case of `COC(=O)[C@H](Cc1ccc(O)cc1)NC(=O)[C@H](CC(C)C)NC(=O)[C@H](CO)NC(=O)OCc1ccccc1` (Cbz-Ser-Leu-Tyr-OMe), in test [2], the inhibition result was “Active”. For the same molecule, the pIC50 – broadly, the IC50 on a negative log10 scale, so that one unit is a factor of ten – on Protease was 3.79.
For `COC(=O)[C@H](CC(C)C)NC(=O)[C@H](Cc1ccccc1)NC(=O)[C@H](CO)NC(=O)OCc1ccccc1` (Cbz-Ser-Phe-Leu-OMe) the same measures were “Active” and 4.21.
Turning to `O=C(CNC(=O)[C@@H]1CCCN1C(=O)[C@@H]1C[C@@H](O)CN1C(=O)OCc1ccccc1)Oc1ccc([N+](=O)[O-])cc1` (Cbz-[Hyp]-Pro-Gly-ONp), in test [2], the inhibition entry was “inactive”.

The record behind these values is ChEMBL document CHEMBL3612063, “Multistage virtual screening and identification of novel HIV-1 protease inhibitors by integrating SVM, shape, pharmacophore and docking methods” (Eur J Med Chem, 2015).
